As a reminder, the IC50 is the concentration that gives 50% inhibition. For orientation: MIC means the lowest concentration that inhibits growth of the organism. The MBC is the smallest concentration meeting the test's criterion for killing.

Our source for the IC50, MIC and MBC values is PMC12029531, “Selenium in Action: Exploring the Biological Wonders of Hydroselenite Salts” (Molecules, 2025).

In brackets after ≈: the same amount, converted by molar mass. Where two headings read alike, the source gives them in different places.

Experiment [1] deals with normal human dermal fibroblasts (NHDF). The experiment is described as follows: MTT assay in non-malignant cells. The class given is cell-based. The conditions noted are these: 48 h, mean ± SD.
The subject of the next experiment is Staphylococcus aureus. As to the kind of experiment: MIC and MBC, broth micro-dilution. The class given is cell-based. The conditions noted are these: S. aureus; for MIC: 24 h. A general note: Dilution methods test growth across graded concentrations, often in twofold steps.
For experiment [2], the system named is MCF-7 (human breast adenocarcinoma cells). The experiment is described as follows: MTT antiproliferative assay. The class given is cell-based. The conditions noted are these: MCF-7, 48 h, mean ± SD. Background: Tetrazolium dyes change colour on reduction, which living cells bring about.
The next experiment concerns Pseudomonas aeruginosa. As to the kind of experiment: MIC and MBC, broth micro-dilution. It is filed as cell-based.
The subject of a further experiment is Escherichia coli. As to the kind of experiment: MIC and MBC, broth micro-dilution. It is filed as cell-based. The conditions noted are these: E. coli; for MIC: 24 h.
A further experiment deals with Klebsiella pneumoniae. The experiment is described as follows: MIC and MBC, broth micro-dilution. The class given is cell-based. The conditions noted are these: K. pneumoniae; for MIC: 24 h.
Experiment [3] deals with U251 (glioblastoma cancer). The experiment is described as follows: MTT antiproliferative assay. It is filed as cell-based, human. The conditions noted are these: U251, 48 h, mean ± SD.
Experiment [4] relates to Panc-1 (pancreatic cancer). As to the kind of experiment: MTT antiproliferative assay. It is filed as cell-based, human. The conditions noted are these: mean ± SD.
For the next experiment, the system named is DU-145 (prostate cancer). As to the kind of experiment: MTT antiproliferative assay. It is filed as cell-based, human. The conditions noted are these: DU-145, 48 h, mean ± SD.
For experiment [5], the system named is Staphylococcus epidermidis. The experiment is described as follows: MIC and MBC, broth micro-dilution. It is filed as cell-based. The conditions noted are these: S. epidermidis; for MIC: 24 h.
In a further experiment the test system is Bacillus sphaericus. As to the kind of experiment: MIC and MBC, broth micro-dilution. The conditions noted are these: B. sphaericus; for MIC: 24 h. It is filed as cell-based.
The next experiment deals with U251 cell line. The experiment is described as follows: Cytotoxicity of selenous acid (MTS assay, Figure S60). It is filed as cell-based, human. The conditions noted are these: U251, 48 h, 1–100 µM. From the text:
The striking difference in the potency of Se salts as compared to their corresponding parent compounds raises a question: Could the release of the Se salt part of the molecules be solely responsible for these activities? Nevertheless, after thoroughly analyzing the in vitro antiproliferative activities and the structure of the reported compounds, our initial hypothesis is that the antitumor activity of the new selenium salts might not be due to the release of the Se inorganic, as evinced by the following four experimental outcomes: (1) All the salt compounds should have shown similar efficacy at the same molar concentrations if the toxicity was solely due to the release of the Se salt part. […] To confirm this hypothesis and due to the scarce number of reported antitumor activities of selenous acid, we evaluated H2SeO3 in the U251 cell line in our experimental setup. […] Since the IC50 value of selenous acid is in the range of what is observed for SLT-1-6 (Table 3), the increased antiproliferative activity of the salts might or might not be linked to the release of the Se salt fragment of the molecule. […] Further studies are needed to fully characterize and understand the behavior of these selenous salts.
Figure S58. Dose-response curves of SLT-6 in all the cell lines present in the NCI panel.
Figure S59. […]
Cell viability was assessed using an MTS assay. […]

For the next experiment, the system named is Panc-1 cells. The conditions noted are these: several experimental conditions; cited from earlier work.
Setting [6] is: Staphylococcus aureus, read-out: MIC.
Where [7] appears, read: Staphylococcus aureus, read-out: MBC.
Where [8] appears, read: Pseudomonas aeruginosa; P. aeruginosa, 24 h; read-out: MIC.
Where [9] appears, read: Pseudomonas aeruginosa; P. aeruginosa; read-out: MBC.
Where [10] appears, read: Escherichia coli, read-out: MIC.
Where [11] appears, read: Escherichia coli, read-out: MBC.
The mark [12] stands for this setting: Klebsiella pneumoniae, read-out: MBC.
The mark [13] stands for this setting: Klebsiella pneumoniae, read-out: MIC.
[14] abbreviates: Staphylococcus epidermidis, read-out: MIC.
[15] abbreviates: Staphylococcus epidermidis, read-out: MBC.
[16] abbreviates: Lysinibacillus sphaericus, read-out: MIC.
Where [17] appears, read: Lysinibacillus sphaericus, read-out: MBC.

Turning to `NNC(=O)c1ccncc1` [AB-5, isoniazid], the IC50 is 41.2 ± 12.1 µM in experiment [1]; greater than 100 µM in [2]; greater than 100 µM in experiment [3]; greater than 100 µM in [4] (Homo sapiens, PANC-1, 48 h); 99.92 ± 0.2 µM in the experiment with DU-145 (prostate cancer). Also, the MIC (with Staphylococcus aureus (setting [6]); in the experiment with Pseudomonas aeruginosa (setting [8]); in the experiment with Escherichia coli (setting [10]); in the experiment on Klebsiella pneumoniae (setting [13]); in experiment [5] (setting [14]); in the experiment with Bacillus sphaericus (setting [16])) was greater than 200 µg/mL throughout. For the same molecule, the MBC (in the experiment with Staphylococcus aureus (setting [7]); with Pseudomonas aeruginosa (setting [9]); in the experiment on Escherichia coli (setting [11]); in the experiment on Klebsiella pneumoniae (setting [12]); in experiment [5] (setting [15]); in the experiment on Bacillus sphaericus (setting [17])) was greater than 200 µg/mL each time.
As for `CNC(C)C1CCC(N)C(OC2C(N)CC(N)C(OC3OCC(C)(O)C(NC)C3O)C2O)O1` (stereo not drawn) [AB-6, gentamicin], the half-maximal inhibitory concentration (IC50) in [1] is greater than 100 µM; in [2] it was greater than 100 µM; in experiment [3], greater than 100 µM; in experiment [4] (Panc-1, 48 h) it was greater than 100 µM; with DU-145 (prostate cancer) it was greater than 100 µM. Moreover, the MBC against Staphylococcus aureus amounted to 50 µg/mL (≈ 105 µM); with Pseudomonas aeruginosa (setting [9]), 12.5 µg/mL (≈ 26.2 µM); in the experiment with Escherichia coli (setting [11]), 25 µg/mL (≈ 52.3 µM); against Klebsiella pneumoniae it was 3.13 µg/mL (≈ 6.55 µM); in [5], 0.39 µg/mL (≈ 0.817 µM); in the experiment on Bacillus sphaericus (setting [17]), 0.78 µg/mL (≈ 1.63 µM). Also, the MIC turned out to be 25 µg/mL (≈ 52.3 µM) in the experiment on Staphylococcus aureus (setting [6]); 6.56 µg/mL (≈ 13.7 µM) with Pseudomonas aeruginosa (setting [8]); 25 µg/mL (≈ 52.3 µM) in the experiment with Escherichia coli (setting [10]); 1.56 µg/mL (≈ 3.27 µM) against Klebsiella pneumoniae (Klebsiella pneumoniae); 0.39 µg/mL (≈ 0.817 µM) in experiment [5]; 0.2 µg/mL (≈ 0.419 µM) in the experiment with Bacillus sphaericus (setting [16]).
As for `Nc1ccc(S(=O)(=O)c2ccc(N)cc2)cc1` [AB-3, dapsone], the IC50 in experiment [1] is greater than 100 µM; in experiment [2], greater than 100 µM; in experiment [3], greater than 100 µM; in [4] (Homo sapiens, PANC-1, 48 h), greater than 100 µM; with DU-145 (prostate cancer) it was greater than 100 µM. Also, the MBC (in the experiment with Staphylococcus aureus; in the experiment on Pseudomonas aeruginosa (P. aeruginosa); in the experiment with Escherichia coli; in the experiment on Klebsiella pneumoniae; in experiment [5]; in the experiment with Bacillus sphaericus) was greater than 200 µg/mL in each case. The MIC against Staphylococcus aureus is greater than 200 µg/mL; against Pseudomonas aeruginosa (P. aeruginosa, 24 h), greater than 200 µg/mL; in the experiment on Escherichia coli, greater than 200 µg/mL; against Klebsiella pneumoniae, greater than 200 µg/mL; in [5], greater than 200 µg/mL; in the experiment on Bacillus sphaericus, greater than 200 µg/mL.
For the molecule `COc1cc(Cc2cnc(N)nc2N)cc(OC)c1OC` [AB-2, trimethoprim], the half-maximal inhibitory concentration (IC50) in experiment [1] (Homo sapiens) is 6.47 ± 1.79 µM; in [2], greater than 100 µM; in experiment [3], greater than 100 µM; in experiment [4] (Homo sapiens, PANC-1, 48 h), greater than 100 µM; in the experiment with DU-145 (prostate cancer), greater than 100 µM. Further, the MIC in the experiment with Staphylococcus aureus (setting [6]) is 1.56 µg/mL (≈ 5.37 µM); with Pseudomonas aeruginosa (Pseudomonas aeruginosa, 24 h, P. aeruginosa, 24 h; read-out: MIC), 50 µg/mL (≈ 172 µM); in the experiment on Escherichia coli (setting [10]), 1.56 µg/mL (≈ 5.37 µM); in the experiment with Klebsiella pneumoniae (setting [13]), 3.13 µg/mL (≈ 10.8 µM); in experiment [5] (setting [14]), greater than 200 µg/mL; in the experiment with Bacillus sphaericus (setting [16]) it was 1.56 µg/mL (≈ 5.37 µM). Also, the MBC was 3.13 µg/mL (≈ 10.8 µM) in the experiment with Staphylococcus aureus (setting [7]); greater than 200 µg/mL in the experiment on Pseudomonas aeruginosa (setting [9]); 6.25 µg/mL (≈ 21.5 µM) with Escherichia coli (setting [11]); 12.5 µg/mL (≈ 43.1 µM) in the experiment on Klebsiella pneumoniae (setting [12]); greater than 200 µg/mL in experiment [5] (setting [15]); 6.25 µg/mL (≈ 21.5 µM) with Bacillus sphaericus (setting [17]).
In the case of `Nc1ccc(S(=O)(=O)Nc2ncccn2)cc1` [AB-4, sulfadiazine], the IC50 in [1] is greater than 100 µM; in [2], greater than 100 µM; in experiment [3], greater than 100 µM; in [4] (Panc-1, 48 h), greater than 100 µM; in the experiment on DU-145 (prostate cancer) it was greater than 100 µM. The MIC in the experiment with Staphylococcus aureus (setting [6]) is greater than 200 µg/mL; in the experiment with Pseudomonas aeruginosa (P. aeruginosa, 24 h) it was 50 µg/mL (≈ 200 µM); in the experiment on Escherichia coli (setting [10]), greater than 200 µg/mL; in the experiment on Klebsiella pneumoniae (setting [13]), greater than 200 µg/mL; in [5], greater than 200 µg/mL; with Bacillus sphaericus (setting [16]) it was greater than 200 µg/mL. The MBC (with Staphylococcus aureus (setting [7]); with Pseudomonas aeruginosa (setting [9]); in the experiment with Escherichia coli (setting [11]); in the experiment with Klebsiella pneumoniae (setting [12]); in [5] (setting [15]); in the experiment with Bacillus sphaericus (setting [17])) was greater than 200 µg/mL throughout.
As to `O=[Se](O)O` [H2SeO3, selenous acid], the MBC is 200 µg/mL (≈ 1550 µM) with Staphylococcus aureus; greater than 200 µg/mL in the experiment with Pseudomonas aeruginosa (P. aeruginosa); greater than 200 µg/mL against Escherichia coli; 200 µg/mL (≈ 1550 µM) against Klebsiella pneumoniae; 200 µg/mL (≈ 1550 µM) in [5]; 200 µg/mL (≈ 1550 µM) against Bacillus sphaericus. Moreover, the MIC with Staphylococcus aureus is 100 µg/mL (≈ 775 µM); with Pseudomonas aeruginosa (P. aeruginosa, 24 h), 200 µg/mL (≈ 1550 µM); with Escherichia coli, 200 µg/mL (≈ 1550 µM); against Klebsiella pneumoniae, 100 µg/mL (≈ 775 µM); in experiment [5], 100 µg/mL (≈ 775 µM); in the experiment with Bacillus sphaericus it was 100 µg/mL (≈ 775 µM). The same molecule came in with an IC50 with U251 cell line of 1.04 µM.
As to `O=[Se]([O-])[O-].[Na+].[Na+]` [sodium selenite], the IC50 entry with Panc-1 cells is given as “low micromolar range”.
